What was measured:
[1] = system: Escherichia coli EC-1: VOGEL, mouse virulent; experiment: MIC determination (CLSI), strain EC-1; format: cell-based; details: strain EC-1; unit assumed
How it was run: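 The mouse-virulent VOGEL isolate of E. coli, EC-1, served as test organism. Minimum inhibitory concentration was measured by CLSI dilution methodology (M7-A7; M100-S18 standards).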

[2] = system: Pseudomonas aeruginosa UI-18: Wild-type (PA-7); experiment: MIC determination (CLSI), strain PA-7; format: cell-based; details: strain PA-7; unit assumed
How it was run: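 MIC determined by broth dilution per CLSI M7-A7 guidelines with M100-S18 interpretive standards. Test organism: wild-type Pseudomonas aeruginosa UI-18, designated PA-7.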

Row | Compound | EC-1 (MIC) [1] | PA-7 (MIC) [2]
1 | CC(CCn1ccc(-c2ccc(F)c(Cl)c2)cc1=O)(C(=O)NO)S(C)(=O)=O (centres unmarked) [Example 214] | 1 µg/mL | 2 µg/mL
2 | CC(CCn1ccc(-c2cccc3cnccc23)cc1=O)(C(=O)NO)S(C)(=O)=O (centres unmarked) [Example 215, N-hydroxy-4-(4-isoquinolin-5-yl-2-oxopyridin-1(2H)-yl)-2-methyl-2-(methylsulfonyl)butanamide] | > 64 µg/mL | 64 µg/mL
3 | CC(CCn1ccc(-c2cc(Cl)cc(Cl)c2)cc1=O)(C(=O)NO)S(C)(=O)=O (centres unmarked) [Example 216, 4-[4-(3,5-dichlorophenyl)-2-oxopyridin-1(2H)-yl]-N-hydroxy-2-methyl-2-(methylsulfonyl)butanamide] | 4 µg/mL | 8 µg/mL
4 | CCCCCc1ccc(-c2ccn(CCC(C)(C(=O)NO)S(C)(=O)=O)c(=O)c2)cc1 (centres unmarked) [Example 217, N-hydroxy-2-methyl-2-(methylsulfonyl)-4-[2-oxo-4-(4-pentylphenyl)pyridin-1(2H)-yl]butanamide] | < 0.06 µg/mL | 8 µg/mL
5 | CC(CCn1ccc(-c2ccncc2)cc1=O)(C(=O)NO)S(C)(=O)=O (centres unmarked) [Example 218, N-hydroxy-2-methyl-2-(methylsulfonyl)-4-(2-oxo-4,4′-bipyridin-1(2H)-yl)butanamide] | > 64 µg/mL | 64 µg/mL
6 | CC(CCn1ccc(-c2cccnc2)cc1=O)(C(=O)NO)S(C)(=O)=O (centres unmarked) [Example 219, N-hydroxy-2-methyl-2-(methylsulfonyl)-4-(2′-oxo-3,4′-bipyridin-1′(2′H)-yl)butanamide] | > 64 µg/mL | > 64 µg/mL
7 | Cc1cc(-c2ccccc2)cc(=O)n1CCC(C)(C(=O)NO)S(C)(=O)=O (centres unmarked) [Example 220, N-hydroxy-2-methyl-4-(6-methyl-2-oxo-4-phenylpyridin-1(2H)-yl)-2-(methylsulfonyl)butanamide] | > 64 µg/mL | > 64 µg/mL
8 | CC(CCn1ccc(-c2ccc(OCCCN3CCOCC3)c(Cl)c2)cc1=O)(C(=O)NO)S(C)(=O)=O (centres unmarked) [Example 221, 4-{4-[3-chloro-4-(3-morpholin-4-ylpropoxy)phenyl]-2-oxopyridin-1(2H)-yl}-N-hydroxy-2-methyl-2-(methylsulfonyl)butanamide] | 2 µg/mL | 8 µg/mL
9 | Cc1cc(-c2ccn(CCC(C)(C(=O)NO)S(C)(=O)=O)c(=O)c2)ccc1OCCCN1CCOCC1 (centres unmarked) [Example 222, N-hydroxy-2-methyl-4-{4-[3-methyl-4-(3-morpholin-4-ylpropoxy)phenyl]-2-oxopyridin-1(2H)-yl}-2-(methylsulfonyl)butanamide] | 2 µg/mL | 8 µg/mL
10 | CC(CCn1ccc(-c2ccc(OCCCN3CCOCC3)c(F)c2)cc1=O)(C(=O)NO)S(C)(=O)=O (centres unmarked) [Example 223, 4-{4-[3-fluoro-4-(3-morpholin-4-ylpropoxy)phenyl]-2-oxopyridin-1(2H)-yl}-N-hydroxy-2-methyl-2-(methylsulfonyl)butanamide] | 4 µg/mL | 8 µg/mL
11 | CC(O)Cc1ccc(-c2ccn(CCC(C)(C(=O)NO)S(C)(=O)=O)c(=O)c2)cc1 (centres unmarked) [Example 224, N-hydroxy-4-{4-[4-(2-hydroxypropyl)phenyl]-2-oxopyridin-1(2H)-yl}-2-methyl-2-(methylsulfonyl)butanamide] | 32 µg/mL | 8 µg/mL
12 | CC(CCn1ccc(-c2ccc(OCCCN3CCOCC3)cc2Cl)cc1=O)(C(=O)NO)S(C)(=O)=O (centres unmarked) [Example 225, 4-{4-[2-chloro-4-(3-morpholin-4-ylpropoxy)phenyl]-2-oxopyridin-1(2H)-yl}-N-hydroxy-2-methyl-2-(methylsulfonyl)butanamide] | 8 µg/mL | 16 µg/mL
13 | CC(CCn1ccc(-c2ccc(OCCCN3CCOCC3)cc2F)cc1=O)(C(=O)NO)S(C)(=O)=O (centres unmarked) [Example 226, 4-{4-[2-fluoro-4-(3-morpholin-4-ylpropoxy)phenyl]-2-oxopyridin-1(2H)-yl}-N-hydroxy-2-methyl-2-(methylsulfonyl)butanamide] | 2 µg/mL | 8 µg/mL
